The NIST ThermoML archive (doi:10.1021/je700344f)
Where “and” joins values, the source holds several entries; their conditions need not be identical. Equal values may be shown once. Numbers after ± are expanded uncertainties.

Settings: 101.33 kPa, Liquid

| Compound | mass density (283.15 K) [kg/m3] | viscosity (283.15 K) [mPa·s] | mass density (293.15 K) [kg/m3] | viscosity (293.15 K) [mPa·s] | mass density (303.15 K) | viscosity (303.15 K) | mass density (313.15 K) [kg/m3] | viscosity (313.15 K) [mPa·s] | mass density (323.15 K) | viscosity (323.15 K) | mass density (333.15 K) [kg/m3] | viscosity (333.15 K) [mPa·s] | mass density (343.15 K) [kg/m3] | viscosity (343.15 K) [mPa·s] |
| --- | --- | --- | --- | --- | --- | --- | --- | --- | --- | --- | --- | --- | --- | --- |
| C1COCCO1 [1,4-dioxane] | 1046.91 ± 3.4 | 1.59 ± 0.11 | 1035.03 ± 3.1 | 1.312 ± 0.094 | 1022.71 ± 2.8 kg/m3 | 1.102 ± 0.081 mPa·s | 1011.32 ± 2.5 | 0.946 ± 0.071 | 999.12 ± 2.2 kg/m3 | 0.825 ± 0.063 mPa·s | 987.92 ± 2.5 | 0.721 ± 0.056 | 976.61 ± 2.8 | 0.64 ± 0.051 |
| CN(C)c1ccccc1 [N,N-dimethylaniline] | 969.97 ± 2.9 | 1.696 ± 0.12 | 963.01 ± 3.1 | 1.439 ± 0.1 | 956.21 ± 3.3 kg/m3 | 1.17 ± 0.085 mPa·s | 948.34 ± 3.5 | 0.981 ± 0.073 | 940.24 ± 3.7 kg/m3 | 0.928 ± 0.07 mPa·s | 932.71 ± 3.9 | 0.911 ± 0.068 | 924.08 ± 4.1 | 0.841 ± 0.064 |
| CCCCCCO [hexan-1-ol] | 828.23 ± 6.5 | 7.459 ± 0.44 | 821.01 ± 6.7 | 5.335 ± 0.34 | 815.92 ± 6.8 kg/m3 and 813.96 ± 6.9 kg/m3 | 3.763 ± 0.25 mPa·s and 3.917 ± 0.26 mPa·s | 810.91 ± 7 | 2.937 ± 0.2 | 806.84 ± 7 kg/m3 and 804.22 ± 7.1 kg/m3 | 2.172 ± 0.15 mPa·s and 2.276 ± 0.16 mPa·s | 802.91 ± 7.2 | 1.654 ± 0.12 | 798.64 ± 7.3 | 1.411 ± 0.1 |
